In brackets after ≈: the same amount, converted by molar mass.
Key:
[1] = system: Aspergillus niger; test: checkerboard drug interaction (FICI, MICc); type: cell-based;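 further: simplified diagonal checkerboard screen pairing antifungals with FPPS inhibitors, FICI calculated under the Loewe additivity model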
Protocol: (§1) Drug interactions between antifungals and FPPS inhibitors were investigated using a simplified checkerboard diagonal screening method ([45]). […] FICIs were determined according to the Loewe additivity model ([17]).

[2] = system: Candida tropicalis; test: checkerboard drug interaction (FICI, MICc); type: cell-based;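 further: simplified diagonal checkerboard screen of antifungal plus FPPS inhibitor combinations, with FICI computed by the Loewe additivity model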
Protocol: as §1

[3] = system: Trichophyton tonsurans; test: MIC broth microdilution (CLSI); settings: Trichophyton tonsurans R-168
Protocol: (§2) Antifungal susceptibility was determined by broth microdilution according to the CLSI guidelines described in M27-Ed4 ([16]).

[4] = system: Aspergillus lentulus; test: checkerboard drug interaction (FICI, MICc); type: cell-based;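 further: simplified diagonal checkerboard screen pairing antifungals with FPPS inhibitors, with the interaction index calculated under the Loewe additivity model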
Protocol: as §1

[5] = system: Epidermophyton floccosum; test: checkerboard drug interaction (FICI, MICc);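 further: simplified diagonal checkerboard screen pairing antifungals with FPPS inhibitors, FICI calculated under the Loewe additivity model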
Protocol: as §1

[6] = system: Trichophyton tonsurans; test: checkerboard drug interaction (FICI, MICc); type: cell-based;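 further: simplified diagonal checkerboard screen combining antifungals with FPPS inhibitors, with FICI calculated under the Loewe additivity model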
Protocol: as §1

[7] = system: Microsporum canis; test: checkerboard drug interaction (FICI, MICc); type: cell-based;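 further: simplified diagonal checkerboard screen pairing antifungals with FPPS inhibitors, FICI calculated under the Loewe additivity model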
Protocol: as §1

[8] = system: Fusarium solani; test: checkerboard drug interaction (FICI, MICc); type: cell-based;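 further: simplified diagonal checkerboard screen pairing antifungals with FPPS inhibitors, FICI derived under the Loewe additivity model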
Protocol: as §1

[9] = system: Nannizzia nana; test: checkerboard drug interaction (FICI, MICc); type: cell-based;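 further: simplified diagonal checkerboard screen pairing antifungals with FPPS inhibitors, FICI calculated under the Loewe additivity model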
Protocol: as §1

[10] = system: Aspergillus terreus; test: checkerboard drug interaction (FICI, MICc); type: cell-based;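 further: simplified diagonal checkerboard screen pairing antifungals with FPPS inhibitors, FICI derived by the Loewe additivity model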
Protocol: as §1

[11] = system: Trichophyton soudanense; test: checkerboard drug interaction (FICI, MICc); type: cell-based;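 further: simplified diagonal checkerboard screen pairing antifungals with FPPS inhibitors, FICI computed under the Loewe additivity model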
Protocol: as §1

[12] = system: Aspergillus lentulus; test: MIC broth microdilution (CLSI); type: cell-based; settings: Aspergillus lentulus DTO 341-G7
Protocol: as §2

[13] = system: Aspergillus parafelis; test: MIC broth microdilution (CLSI); type: cell-based; settings: Aspergillus parafelis DTO 341-F2
Protocol: as §2

[14] = system: Rhizopus oryzae; test: MIC broth microdilution (CLSI); type: cell-based; settings: Rhizopus oryzae 04-14-364-1703
Protocol: as §2

[15] = system: Aspergillus frankstonensis; test: MIC broth microdilution (CLSI); type: cell-based; settings: Aspergillus frankstonensis DTO 341-F3
Protocol: as §2

[16] = system: Candida parapsilosis; test: MIC broth microdilution (CLSI); type: cell-based; settings: Candida parapsilosis ATCC 22018
Protocol: Antifungal susceptibility was determined by broth microdilution according to the CLSI guidelines described in M27-Ed4 ([16]). […] MFC was determined by back-plating drug-treated cultures from MIC broths onto SDA plates. The MFC was defined as the lowest concentration from which no colonies could be cultured.

SMILES: O=P(O)(O)C(O)(Cn1ccnc1)P(=O)(O)O [ZOL, zoledronate]
- bisphosphonate MICc ([1]; ZOL with KET): 256
- bisphosphonate MICc ([1]; ZOL with VOR): 8
- FICI ([2]; 5FC:ZOL): 0.75
- FICI ([2]; AMB:ZOL): 2
- FICI ([2]; CAS:ZOL): 0.4
- FICI ([2]; FLC:ZOL): 0.31
- FICI ([2]; ITR:ZOL): 0.31
- FICI ([2]; KET:ZOL): 0.31
- FICI ([2]; VOR:ZOL): 0.49
- bisphosphonate MICc ([2]; ZOL with 5FC): 64
- bisphosphonate MICc ([2]; ZOL with AMB): 128
- bisphosphonate MICc ([2]; ZOL with CAS): 8
- bisphosphonate MICc ([2]; ZOL with FLC): 32
- bisphosphonate MICc ([2]; ZOL with ITR): 16
- bisphosphonate MICc ([2]; ZOL with KET): 32
- bisphosphonate MICc ([2]; ZOL with VOR): 1
- MIC / MEC [3]: 128 mg/L (≈ 470 µM)
- FICI ([4]; 5FC:ZOL): 3
- FICI ([4]; AMB:ZOL): 0.56
- FICI ([4]; CAS:ZOL): 0.63
- FICI ([4]; FLC:ZOL): 0.25
- FICI ([4]; ITR:ZOL): 0.31
- FICI ([4]; KET:ZOL): 0.38
- FICI ([4]; VOR:ZOL): 0.63
- bisphosphonate MICc ([4]; ZOL with 5FC): 512
- bisphosphonate MICc ([4]; ZOL with AMB): 32
- bisphosphonate MICc ([4]; ZOL with CAS): 64
- bisphosphonate MICc ([4]; ZOL with FLC): 2
- bisphosphonate MICc ([4]; ZOL with ITR): 32
- bisphosphonate MICc ([4]; ZOL with KET): 64
- bisphosphonate MICc ([4]; ZOL with VOR): 256
- FICI ([5]; 5FC:ZOL): 1.5
- FICI ([5]; AMB:ZOL): 1
- FICI ([5]; CAS:ZOL): 2.17
- FICI ([5]; FLC:ZOL): 0.63
- FICI ([5]; ITR:ZOL): 0.63
- FICI ([5]; KET:ZOL): 0.5
- FICI ([5]; VOR:ZOL): 1.13
- bisphosphonate MICc ([5]; ZOL with 5FC): 64
- bisphosphonate MICc ([5]; ZOL with AMB): 32
- bisphosphonate MICc ([5]; ZOL with CAS): 16
- bisphosphonate MICc ([5]; ZOL with FLC): 8
- bisphosphonate MICc ([5]; ZOL with ITR): 8
- bisphosphonate MICc ([5]; ZOL with KET): 16
- bisphosphonate MICc ([5]; ZOL with VOR): 8
- FICI ([6]; 5FC:ZOL): 2
- FICI ([6]; AMB:ZOL): 3.92
- FICI ([6]; CAS:ZOL): 1
- FICI ([6]; FLC:ZOL): 0.31
- FICI ([6]; ITR:ZOL): 0.38
- FICI ([6]; KET:ZOL): 0.25
- FICI ([6]; VOR:ZOL): 0.61
- bisphosphonate MICc ([6]; ZOL with 5FC): 128
- bisphosphonate MICc ([6]; ZOL with AMB): 256
- bisphosphonate MICc ([6]; ZOL with CAS): 64
- bisphosphonate MICc ([6]; ZOL with FLC): 8
- bisphosphonate MICc ([6]; ZOL with ITR): 16
- bisphosphonate MICc ([6]; ZOL with KET): 16
- bisphosphonate MICc ([6]; ZOL with VOR): 16
- FICI ([7]; 5FC:ZOL): ≥4
- FICI ([7]; AMB:ZOL): 0.75
- FICI ([7]; CAS:ZOL): 0.56
- FICI ([7]; FLC:ZOL): 0.38
- FICI ([7]; ITR:ZOL): 0.75
- FICI ([7]; KET:ZOL): 0.31
- FICI ([7]; VOR:ZOL): 0.63
- bisphosphonate MICc ([7]; ZOL with 5FC): 64
- bisphosphonate MICc ([7]; ZOL with AMB): 16
- bisphosphonate MICc ([7]; ZOL with CAS): 4
- bisphosphonate MICc ([7]; ZOL with FLC): 8
- bisphosphonate MICc ([7]; ZOL with ITR): 16
- bisphosphonate MICc ([7]; ZOL with KET): 4
- bisphosphonate MICc ([7]; ZOL with VOR): 8
- FICI ([8]; 5FC:ZOL): 3
- FICI ([8]; AMB:ZOL): 0.75
- FICI ([8]; CAS:ZOL): ≥4
- FICI ([8]; FLC:ZOL): 0.75
- FICI ([8]; ITR:ZOL): 0.38
- FICI ([8]; KET:ZOL): 0.75
- FICI ([8]; VOR:ZOL): 1.03
- bisphosphonate MICc ([8]; ZOL with 5FC): 256
- bisphosphonate MICc ([8]; ZOL with AMB): 64
- bisphosphonate MICc ([8]; ZOL with CAS): 256
- bisphosphonate MICc ([8]; ZOL with FLC): 128
- bisphosphonate MICc ([8]; ZOL with ITR): 32
- bisphosphonate MICc ([8]; ZOL with KET): 128
- bisphosphonate MICc ([8]; ZOL with VOR): 8
- FICI ([9]; 5FC:ZOL): ≥4
- FICI ([9]; AMB:ZOL): 1
- FICI ([9]; CAS:ZOL): 0.75
- FICI ([9]; FLC:ZOL): 0.5
- FICI ([9]; ITR:ZOL): 0.65
- FICI ([9]; KET:ZOL): 0.51
- FICI ([9]; VOR:ZOL): 1.1
- bisphosphonate MICc ([9]; ZOL with 5FC): 256
- bisphosphonate MICc ([9]; ZOL with AMB): 64
- bisphosphonate MICc ([9]; ZOL with CAS): 64
- bisphosphonate MICc ([9]; ZOL with FLC): 32
- bisphosphonate MICc ([9]; ZOL with ITR): 16
- bisphosphonate MICc ([9]; ZOL with KET): 32
- bisphosphonate MICc ([9]; ZOL with VOR): 8
- FICI ([10]; 5FC:ZOL): 1.5
- FICI ([10]; AMB:ZOL): 1
- FICI ([10]; CAS:ZOL): 1.5
- FICI ([10]; FLC:ZOL): 0.38
- FICI ([10]; ITR:ZOL): 0.51
- FICI ([10]; KET:ZOL): 0.25
- FICI ([10]; VOR:ZOL): 0.52
- bisphosphonate MICc ([10]; ZOL with 5FC): 128
- bisphosphonate MICc ([10]; ZOL with AMB): 64
- bisphosphonate MICc ([10]; ZOL with CAS): 64
- bisphosphonate MICc ([10]; ZOL with FLC): 32
- bisphosphonate MICc ([10]; ZOL with ITR): 32
- bisphosphonate MICc ([10]; ZOL with KET): 16
- bisphosphonate MICc ([10]; ZOL with VOR): 2
- FICI ([11]; 5FC:ZOL): 3
- FICI ([11]; AMB:ZOL): 3
- FICI ([11]; CAS:ZOL): 3
- FICI ([11]; FLC:ZOL): 0.75
- FICI ([11]; ITR:ZOL): 0.75
- FICI ([11]; KET:ZOL): 0.38
- FICI ([11]; VOR:ZOL): 0.49
- bisphosphonate MICc ([11]; ZOL with 5FC): 128
- bisphosphonate MICc ([11]; ZOL with AMB): 128
- bisphosphonate MICc ([11]; ZOL with CAS): 64
- bisphosphonate MICc ([11]; ZOL with FLC): 16
- bisphosphonate MICc ([11]; ZOL with ITR): 16
- bisphosphonate MICc ([11]; ZOL with KET): 8
- bisphosphonate MICc ([11]; ZOL with VOR): 16
- MIC / MEC [12]: >256 mg/L
- MIC / MEC [13]: >256 mg/L
- MIC / MEC [14]: >256 mg/L
- MIC / MEC [15]: 128 mg/L (≈ 470 µM)
- MIC / MEC [16]: 128 mg/L (≈ 470 µM)
